Source: patent US10227342B2 (ARIAD PHARMACEUTICALS, INC., priority 2014, dated 2019)

Columns and labels:
Assay type in all cases: cell-based
[1] = molecular target: human EGFR exon 20 insertion ASV (V769_D770insASV) (Homo sapiens (Human), UniProt P00533, INS769ASV); assay: Ba/F3-EGFR-Exon20-ASV cell anti-proliferative assay (CellTiter 96 MTS, 72 h); conditions: Ba/F3-EGFR-Exon20-ASV cells;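 note: Ba/F3 cells bearing the EGFR exon 20 ASV insertion, a line able to proliferate without IL-3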
Description: (§1) Ba/F3 cells expressing EGFR exon 20 insertions (named Ba/F3-EGFR-Exon20-NPG or Ba/F3-EGFR-Exon20-ASV) can proliferate in the absence of IL-3. The anti-proliferative activity of compounds were determined as follows: BaF3-EGFR-Exon20 cells (NPG or ASV) seeded in 96 well plates (2500 cells/well) were treated with test compound (dissolved in DMSO) at a series of concentrations (4-fold dilution, top concentration: 10,000 nM). The plates were incubated for 72 h in a 37° C. incubator with 5% CO2, and the number of viable cells in each well were measured indirectly by CellTiter 96® Aqueous One Solution Cell Proliferation Assay (Promega) This assay is a colorimetric method for determining the number of viable cells through measurement of their metabolic activity by detection of enzymatic conversion of tetrazolium salts into blue formazan derivatives. Reagent (20 μL) was added into each well, and the plates were returned to the incubator for 2 h. The absorbance in each well was then measured at 490 nm using an Envision plate reader (Perkin Elmer).

[2] = molecular target: human EGFR exon 20 insertion NPG (H773_V774insNPG) (Homo sapiens, UniProt P00533, INS773NPG, cells depend on it); assay: Ba/F3-EGFR-Exon20-NPG cell anti-proliferative assay (CellTiter 96 MTS, 72 h); conditions: read-out: EGFR exon 20 NPG insertion IC50
human EGFR exon 20 insertion NPG (H773_V774insNPG), sequence (P00533 with tags, fused parts or gaps INS773NPG limits assumed): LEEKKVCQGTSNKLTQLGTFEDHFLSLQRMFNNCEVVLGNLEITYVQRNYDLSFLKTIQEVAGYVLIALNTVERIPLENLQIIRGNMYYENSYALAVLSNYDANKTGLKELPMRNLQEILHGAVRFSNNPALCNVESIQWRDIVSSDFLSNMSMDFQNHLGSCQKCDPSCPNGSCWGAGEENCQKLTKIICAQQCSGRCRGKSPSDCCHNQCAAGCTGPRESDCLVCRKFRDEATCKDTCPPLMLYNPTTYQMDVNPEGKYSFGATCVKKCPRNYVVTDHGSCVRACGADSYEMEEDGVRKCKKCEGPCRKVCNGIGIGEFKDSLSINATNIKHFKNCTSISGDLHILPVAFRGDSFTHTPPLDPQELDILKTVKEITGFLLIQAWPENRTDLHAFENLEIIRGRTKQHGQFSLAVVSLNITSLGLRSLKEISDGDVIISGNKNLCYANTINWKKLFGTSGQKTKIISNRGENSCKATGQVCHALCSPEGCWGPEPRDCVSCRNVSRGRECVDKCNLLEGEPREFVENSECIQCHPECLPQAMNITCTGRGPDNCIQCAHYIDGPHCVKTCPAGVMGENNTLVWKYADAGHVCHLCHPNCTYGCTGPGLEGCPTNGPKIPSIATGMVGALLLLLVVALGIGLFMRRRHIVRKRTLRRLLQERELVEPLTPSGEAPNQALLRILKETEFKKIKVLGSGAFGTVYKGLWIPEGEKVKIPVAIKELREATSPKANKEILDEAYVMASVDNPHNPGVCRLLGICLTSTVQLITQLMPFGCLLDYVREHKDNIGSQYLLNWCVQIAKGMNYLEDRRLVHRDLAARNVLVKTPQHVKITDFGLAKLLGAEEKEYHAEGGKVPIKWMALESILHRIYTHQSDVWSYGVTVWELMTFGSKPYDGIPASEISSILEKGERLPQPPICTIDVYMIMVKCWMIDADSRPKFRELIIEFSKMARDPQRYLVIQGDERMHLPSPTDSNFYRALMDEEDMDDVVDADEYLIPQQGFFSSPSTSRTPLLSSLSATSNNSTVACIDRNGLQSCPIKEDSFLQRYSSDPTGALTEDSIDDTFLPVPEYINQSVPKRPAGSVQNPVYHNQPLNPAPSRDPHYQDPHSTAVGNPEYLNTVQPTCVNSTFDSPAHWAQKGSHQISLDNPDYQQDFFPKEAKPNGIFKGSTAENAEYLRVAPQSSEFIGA
Description: as §1

[3] = molecular target: human EGFR E746-A750 deletion and T790M Mutation (DT) (Homo sapiens (Human), UniProt P00533, DEL746-750/T790M); assay: Ba/F3-EGFR-Del/T790M cell anti-proliferative assay (CellTiter 96 MTS, 72 h); conditions: Ba/F3-EGFR-Del/T790M cells; for IC50: read-out: EGFR exon 19 deletion and T790M mutation IC50
human EGFR E746-A750 deletion and T790M Mutation (DT), sequence (P00533 other isoform, or with tags, fused parts or gaps T790M/del E746-A750): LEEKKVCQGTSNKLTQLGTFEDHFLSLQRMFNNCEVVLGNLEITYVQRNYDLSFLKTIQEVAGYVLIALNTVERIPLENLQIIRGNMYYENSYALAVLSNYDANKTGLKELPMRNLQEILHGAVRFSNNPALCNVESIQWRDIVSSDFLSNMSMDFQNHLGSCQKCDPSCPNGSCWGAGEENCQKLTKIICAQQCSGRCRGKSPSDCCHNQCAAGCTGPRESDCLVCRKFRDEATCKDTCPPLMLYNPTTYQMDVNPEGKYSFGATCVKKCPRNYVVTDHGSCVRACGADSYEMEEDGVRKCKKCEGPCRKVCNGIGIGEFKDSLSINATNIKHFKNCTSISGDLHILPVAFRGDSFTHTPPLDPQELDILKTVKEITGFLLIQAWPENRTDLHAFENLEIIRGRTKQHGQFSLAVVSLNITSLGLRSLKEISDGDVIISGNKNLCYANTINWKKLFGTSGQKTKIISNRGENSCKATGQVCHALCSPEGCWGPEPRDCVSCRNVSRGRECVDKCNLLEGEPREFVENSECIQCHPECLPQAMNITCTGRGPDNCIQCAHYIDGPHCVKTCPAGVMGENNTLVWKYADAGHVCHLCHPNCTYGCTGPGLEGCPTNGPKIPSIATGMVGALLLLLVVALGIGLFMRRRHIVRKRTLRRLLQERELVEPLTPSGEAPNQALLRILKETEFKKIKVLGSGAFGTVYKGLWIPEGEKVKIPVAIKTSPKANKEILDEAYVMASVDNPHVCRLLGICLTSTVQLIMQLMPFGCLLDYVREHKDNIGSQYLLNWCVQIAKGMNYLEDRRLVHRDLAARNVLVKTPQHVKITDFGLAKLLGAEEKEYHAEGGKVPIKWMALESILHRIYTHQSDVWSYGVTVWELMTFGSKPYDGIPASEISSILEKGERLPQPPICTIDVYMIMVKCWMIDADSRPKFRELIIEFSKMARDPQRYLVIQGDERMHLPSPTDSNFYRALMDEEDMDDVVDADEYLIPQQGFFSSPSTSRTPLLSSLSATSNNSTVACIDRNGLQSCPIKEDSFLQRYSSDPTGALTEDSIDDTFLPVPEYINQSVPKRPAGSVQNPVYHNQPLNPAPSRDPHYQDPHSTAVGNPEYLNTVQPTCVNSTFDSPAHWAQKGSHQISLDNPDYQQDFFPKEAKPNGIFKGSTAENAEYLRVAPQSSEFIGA
Description: An expression vector, pLVX-IRES puro (Clontech) coding for human EGFR E746-A750 deletion and T790M Mutation, was transfected into HEK293 cells by the Trans-Lentiviral ORF Packaging System (Thermo Scientific), to produce virus encoding EGFR exon 19 deletion and T790M mutations. […] Ba/F3 cells expressing EGFR E746-A750 deletion and T790M Mutation (named Ba/F3-EGFR-Del/T790M) can proliferate in the absence of IL-3. The anti-proliferative activity of compounds was determined as follows: BaF3-EGFR-Del/T790M cells seeded in 96 well plates (2500 cells/well) were treated with test compound (dissolved in DMSO) at a series of concentrations (4-fold dilution, top concentration: 10,000 nM). The plates were incubated for 72 h in a 37° C. incubator with 5% CO2, and the number of viable cells in each well were measured indirectly by CellTiter 96® Aqueous One Solution Cell Proliferation Assay (Promega; this assay is a colorimetric method for determining the number of viable cells through measurement of their metabolic activity by detection of enzymatic conversion of tetrazolium salts into blue formazan derivatives). Reagent (20 μL) was added into each well, and the plates were returned to the incubator for 2 h. The absorbance in each well was then measured at 490 nm using an Envision plate reader (Perkin Elmer).

[4] = molecular target: human EGFR L858R and T790M double mutation (LT) (Homo sapiens (Human), UniProt P00533, L858R/T790M); assay: Ba/F3-EGFR L858R/T790M cell anti-proliferative assay (CellTiter 96 MTS, 72 h); conditions: Ba/F3-EGFR L858R/T790M cells; for IC50: read-out: EGFR exon 21 L858R and T790M mutation IC50;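 for all read-outs here: Ba/F3 cells carrying the EGFR L858R/T790M double mutant are able to grow without IL-3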
human EGFR L858R and T790M double mutation (LT), sequence (P00533 25-1210 T790M/L858R): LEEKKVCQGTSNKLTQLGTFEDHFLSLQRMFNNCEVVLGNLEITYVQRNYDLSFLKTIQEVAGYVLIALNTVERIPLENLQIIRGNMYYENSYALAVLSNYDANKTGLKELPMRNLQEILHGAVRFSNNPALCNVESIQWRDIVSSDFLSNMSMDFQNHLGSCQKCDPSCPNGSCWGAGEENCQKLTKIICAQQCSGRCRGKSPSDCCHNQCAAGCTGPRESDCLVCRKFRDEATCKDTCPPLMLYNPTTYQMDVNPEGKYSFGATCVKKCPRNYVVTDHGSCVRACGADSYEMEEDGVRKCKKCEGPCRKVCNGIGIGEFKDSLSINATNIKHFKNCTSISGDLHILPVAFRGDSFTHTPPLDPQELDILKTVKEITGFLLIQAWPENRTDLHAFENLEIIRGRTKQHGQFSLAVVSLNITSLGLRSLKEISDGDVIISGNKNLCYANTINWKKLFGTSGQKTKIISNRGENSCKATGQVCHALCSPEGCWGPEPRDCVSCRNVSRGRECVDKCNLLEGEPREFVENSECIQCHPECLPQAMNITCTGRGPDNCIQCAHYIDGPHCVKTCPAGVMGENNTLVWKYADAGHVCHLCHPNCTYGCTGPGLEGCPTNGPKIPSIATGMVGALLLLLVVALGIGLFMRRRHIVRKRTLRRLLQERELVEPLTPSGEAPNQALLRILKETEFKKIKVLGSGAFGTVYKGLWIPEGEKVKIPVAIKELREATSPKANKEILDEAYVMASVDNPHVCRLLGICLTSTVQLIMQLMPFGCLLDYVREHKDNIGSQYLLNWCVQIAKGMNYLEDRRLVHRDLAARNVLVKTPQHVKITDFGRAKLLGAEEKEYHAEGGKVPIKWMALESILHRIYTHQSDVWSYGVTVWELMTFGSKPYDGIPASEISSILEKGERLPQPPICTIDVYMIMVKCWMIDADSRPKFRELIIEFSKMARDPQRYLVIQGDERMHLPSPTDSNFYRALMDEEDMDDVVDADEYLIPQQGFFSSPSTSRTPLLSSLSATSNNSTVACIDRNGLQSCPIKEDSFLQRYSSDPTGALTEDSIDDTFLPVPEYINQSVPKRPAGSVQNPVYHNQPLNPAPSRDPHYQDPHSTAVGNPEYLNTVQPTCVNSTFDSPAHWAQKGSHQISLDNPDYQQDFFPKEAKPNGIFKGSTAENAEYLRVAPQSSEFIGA
Description: An expression vector, pLVX-IRES puro (Clontech) coding for human EGFR L858R and T790M double mutation, was transfected into HEK293 cells by the Trans-Lentiviral ORF Packaging System (Thermo Scientific), to produce virus encoding EGFR L858R and T790M double mutations. […] Ba/F3 cells expressing EGFR L858R and T790M double mutation (named Ba/F3-EGFR L858R/T790M) can proliferate in the absence of IL-3. The anti-proliferative activity of compounds was determined as follows: BaF3-EGFR L858R/T790M cells seeded in 96 well plates (2500 cells/well) were treated with test compound (dissolved in DMSO) at a series of concentrations (4-fold dilution, top concentration: 10,000 nM). The plates were incubated for 72 h in a 37° C. incubator with 5% CO2, and the number of viable cells in each well were measured indirectly by CellTiter 96® Aqueous One Solution Cell Proliferation Assay (Promega; this assay is a colorimetric method for determining the number of viable cells through measurement of their metabolic activity by detection of enzymatic conversion of tetrazolium salts into blue formazan derivatives). Reagent (20 μL) was added into each well, and the plates were returned to the incubator for 2 h. The absorbance in each well was then measured at 490 nm using an Envision plate reader (Perkin Elmer).

[5] = molecular target: Her2 exon 20 YVMA insertion (A775_G776ins YVMA) (Homo sapiens (Human), UniProt P04626, INS775YVMA); assay: Ba/F3-Her2 Exon20 YVMA cell anti-proliferative assay (CellTiter 96 MTS, 72 h); conditions: Ba/F3-Her2 Exon20 YVMA cells
Her2 exon 20 YVMA insertion (A775_G776ins YVMA), sequence (P04626 other isoform, or with tags, fused parts or gaps ins YVMA behind 775): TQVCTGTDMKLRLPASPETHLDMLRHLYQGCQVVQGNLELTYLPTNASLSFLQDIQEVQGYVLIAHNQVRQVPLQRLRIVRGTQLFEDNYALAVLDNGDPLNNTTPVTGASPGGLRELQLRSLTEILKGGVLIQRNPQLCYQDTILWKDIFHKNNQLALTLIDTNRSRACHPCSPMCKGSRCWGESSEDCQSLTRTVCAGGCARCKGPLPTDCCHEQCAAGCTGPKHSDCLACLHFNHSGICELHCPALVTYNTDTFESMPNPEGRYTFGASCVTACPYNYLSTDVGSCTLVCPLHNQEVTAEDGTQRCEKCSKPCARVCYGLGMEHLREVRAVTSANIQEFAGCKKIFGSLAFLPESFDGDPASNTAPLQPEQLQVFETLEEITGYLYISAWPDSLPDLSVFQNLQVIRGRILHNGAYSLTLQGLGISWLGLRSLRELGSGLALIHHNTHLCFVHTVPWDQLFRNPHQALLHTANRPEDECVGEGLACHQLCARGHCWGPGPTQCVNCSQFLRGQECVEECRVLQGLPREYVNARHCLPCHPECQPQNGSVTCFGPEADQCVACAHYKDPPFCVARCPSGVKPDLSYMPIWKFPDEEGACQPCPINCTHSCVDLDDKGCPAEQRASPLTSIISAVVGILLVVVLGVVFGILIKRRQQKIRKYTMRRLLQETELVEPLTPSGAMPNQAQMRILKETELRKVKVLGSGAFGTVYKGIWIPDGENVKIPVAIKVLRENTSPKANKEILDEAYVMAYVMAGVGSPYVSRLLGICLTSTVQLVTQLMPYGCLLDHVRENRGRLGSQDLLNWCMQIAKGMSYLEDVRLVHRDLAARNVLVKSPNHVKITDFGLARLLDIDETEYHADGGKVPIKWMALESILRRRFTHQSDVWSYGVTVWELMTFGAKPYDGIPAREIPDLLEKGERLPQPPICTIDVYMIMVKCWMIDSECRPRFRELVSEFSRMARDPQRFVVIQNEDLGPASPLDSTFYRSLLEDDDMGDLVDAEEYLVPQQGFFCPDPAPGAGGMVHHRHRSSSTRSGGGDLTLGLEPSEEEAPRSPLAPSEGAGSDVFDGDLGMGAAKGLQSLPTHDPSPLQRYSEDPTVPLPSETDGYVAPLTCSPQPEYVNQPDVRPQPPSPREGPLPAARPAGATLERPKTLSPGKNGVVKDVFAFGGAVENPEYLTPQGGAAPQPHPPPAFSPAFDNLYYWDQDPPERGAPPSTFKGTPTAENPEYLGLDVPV
Text: Ba/F3 cells expressing Her2 Exon20 YVMA insertions (named Ba/F3-Her2 Exon20 YVMA) can proliferate in the absence of IL-3.

Row | SMILES | IC50 [1] | IC50 [2] | IC50 [3] | IC50 [4] | IC50 [5] | EGFR exon 19 deletion and T790M mutation IC50 [3] | EGFR exon 21 L858R and T790M mutation IC50 [4]
1 | C=CC(=O)Nc1cc(Nc2ncc(C(=O)OC(C)C)c(-c3cn(C)c4ccccc34)n2)c(OC)cc1N(C)C[C@@H]1CCCN1C [Example 35, (S)-isopropyl 2-((5-acrylamido-2-methoxy-4-(methyl((1-methylpyrrolidin-2-yl)methyl)amino)phenyl)amino)-4-(1-methyl-1H-indol-3-yl)pyrimidine-5-carboxylate] | < 100 nM | < 100 nM | < 100 nM | < 100 nM | < 100 nM |  | 
2 | C=CC(=O)Nc1cc(Nc2ncc(C(=O)OCC)c(-c3cn(C)c4ccccc34)n2)c(OC)cc1N(C)CCN(C)C [Example 9, ethyl 2-((5-acrylamido-4-((2-(dimethylamino)ethyl)(methyl)amino)-2-methoxyphenyl)amino)-4-(1-methyl-1H-indol-3-yl)pyrimidine-5-carboxylate] | < 100 nM | < 100 nM | < 100 nM | < 100 nM | < 100 nM |  | 
3 | C=CC(=O)Nc1cc(Nc2ncc(C(=O)OC(C)C)c(-c3cn(C)c4ccccc34)n2)c(OC)cc1N(C)CC1CCCN1C (centres unmarked) [Example 17, isopropyl 2-((5-acrylamido-2-methoxy-4-(methyl((1-methylpyrrolidin-2-yl)methyl)amino)phenyl)amino)-4-(1-methyl-1H-indol-3-yl)pyrimidine-5-carboxylate] | < 100 nM | < 100 nM | < 100 nM | < 100 nM | < 100 nM |  | 
4 | C=CC(=O)Nc1cc(Nc2ncc(C(=O)OC(C)C)c(-c3c[nH]c4ccccc34)n2)c(OC)cc1N(C)CCN(C)C [Example 30, isopropyl 2-((5-acrylamido-4-((2-(dimethylamino)ethyl)(methyl)amino)-2-methoxyphenyl)amino)-4-(1H-indol-3-yl)pyrimidine-5-carboxylate] | < 100 nM | < 100 nM | < 100 nM | < 100 nM | < 100 nM |  | 
5 | C=CC(=O)Nc1cc(Nc2ncc(C(=O)OC(C)C)c(-c3cn(C)c4ccccc34)n2)c(OC)cc1N(C)CCN(C)C [Example 10, isopropyl 2-((5-acrylamido-4-((2-(dimethylamino)ethyl)(methyl)amino)-2-methoxyphenyl)amino)-4-(1-methyl-1H-indol-3-yl)pyrimidine-5-carboxylate] | < 100 nM | < 100 nM | < 100 nM | < 100 nM | < 100 nM |  | 
6 | C=CC(=O)Nc1cc(Nc2ncc(C(=O)OC(C)C)c(-c3cn(C)c4ccccc34)n2)c(OC)cc1N(C)C[C@@H]1CCCN1 [Example 73] | < 100 nM | < 100 nM | < 100 nM | < 100 nM | < 100 nM |  | 
7 | C=CC(=O)Nc1cc(Nc2nccc(-c3c(-c4ccc(OCc5ccccn5)c(Cl)c4)n(C)c4ccccc34)n2)c(OC)cc1N(C)CCN(C)C [Example 5, N-(5-((4-(2-(3-chloro-4-(pyridin-2-ylmethoxy)phenyl)-1-methyl-1H-indol-3-yl)pyrimidin-2-yl)amino)-2-((2-(dimethylamino)ethyl)(methyl)amino)-4-methoxyphenyl)acrylamide] | 100 to 500 nM | 100 to 500 nM |  |  | 100 to 500 nM | B (Group B compounds have an IC50 value for the indicated mutant between about 100 to about 500 nM) | B (Group B compounds have an IC50 value for the indicated mutant between about 100 to about 500 nM)
